Reference: patent publication US20130150399A1, “INHIBITORS OF THE UNFOLDED PROTEIN RESPONSE AND METHODS FOR THEIR USE” (The Board of Trustees of the Leland Stanford Junior …, priority 2006, published 2013)

Test system: 5×-UPRE luciferase reporter (XBP-1s)
Assay: 5×-UPRE luciferase reporter assay, HT1080 cells
Type: cell-based, human
Protocol: HT1080 cells stably expressing the XBP-luciferase construct were grown in 60 mm dishes to 60-70% confluency. Following hypoxia treatment, cells were washed twice with PBS, lysed in 400 μl 1× reporter lysis buffer (RLB) (Promega, Madison Wis.) for 30 min at 24° C. Lysates (100 μl) were mixed with an equal volume of luciferase substrate (Promega), and assayed using a luminometer. For 5×-UPRE-luciferase reporter assays, cells were co-transfected with the appropriate reporter plasmid and a control plasmid (pSV40-beta-gal) using Lipofectamine 2000 (Invitrogen, San Diego, Calif.). Twenty-four hours after transfection, fresh media was added, and cells were treated with Tm or shifted to hypoxia. After treatment, cells were lysed in 1×RLB and analyzed for luciferase activity as described above. Beta-galactosidase activity was determined using the beta-galactosidase enzyme assay system (Promega).
A. XBP-luciferase reporter construct. Firefly luciferase was inserted downstream of the IRE1α splice site in human XBP-1 to enable the conditional translation of luciferase under ER stress in an IRE1α-dependent manner. B. Selective inhibition of the XBP-luciferase reporter by irestatin 9389. HT1080 human fibrosarcoma cells stably expressing the XBP-luciferase reporter or CMV-luciferase were cultured in the presence of Tm (4 μg/ml) and Tg (0.4 μM) and irestatin 9389 at the indicated concentrations. After 24 hours, luciferase activity was analyzed in an automated plate reader. For each cell line, values are expressed as the percent inhibition of the median for Tm/Tg-treated wells, corrected for background. C. Structure of irestatin 9389. […] Values are expressed as the fold increases over uninduced levels. […] Cells were harvested, lysed, and analyzed by immunoblotting with antisera specific for HIF-1α (top), XBP-1s (middle) or actin (bottom). […] Total RNA was analyzed by Northern blotting using radiolabeled probes specific for P58^IPK or DER-1. […]
Since these assays employed a chimeric XBP-luciferase substrate, we next determined whether irestatin 9389 could inhibit the function of endogenous XBP-1s. […]

## Cc1csc(NC(=O)CSc2nc3c(c(C(F)(F)F)c2C#N)CCC3)n1 [Compound 9389]
48 hours of hypoxia (vehicle 170-fold)
  diminution of hypoxia-induced UPRE luciferase response: more than 90%
Cells exposed to both Tm and irestatin 9389
  induction of 5×-UPRE luciferase activity over untreated cells: < 4 fold
